{"source": "patent US8148431B2", "about": "“Osteogenesis promoter containing β-cryptoxanthin as the active ingredient” (Kemin Health, L.C., priority 2002, dated 2012)", "key": {"[1]": {"tested_on": "metaphysis tissue of the femur (cancellous bone)", "assay": "Bone alkaline phosphatase activity in cultured femoral metaphysis tissue pieces", "type": "cell-based, Wistar male rats", "conditions": "for Bone alkaline phosphatase activity: metaphysis tissue, mean ± SE", "protocol": "(§1) The femurs were extracted from rats (Wistar male rats; 4 to 5 weeks old) (purchased from Japan SLC Co., Ltd. and fed with solid Oriental yeast (MF)) under anesthesia with ether under a germfree condition. The femurs were each washed with 0.25 M sucrose solution, and then divided into the diaphysis (cortical bone) and metaphysis (cancellous bone). The bone tissue pieces were cultured in a culture medium (Dulbecco's modified culture medium containing 5% of glucose; serum-free medium) containing. β-cryptoxanthin, etc. at […] in an incubator filled with 5% CO2-95% air for 48 hours. β-cryptoxanthin used was “β-cryptoxanthin” of Extrasynthase Co., cycloheximide used was “Cycloheximide” of Sigma Co. Ltd., β-carotene was “β-carotene” of Sigma ? , xanthine was “Xanthine” of Sigma Co, Ltd., parathormone was “Parathormone” of Sigma Co. Ltd. and prostaglandin E2 was “Prostaglandin E2” of Sigma Co. Ltd. In the control, only the culture medium was used without β-cryptoxanthin or the like.\n(§2) The expression level of alkaline phosphatase, which is the most important enzyme for the acceleration of the calcification of bones, was examined. The tissue pieces cultured in the incubator were washed in 0.25 M sucrose solution, then pulverized in 3 ml of 65 mM barbital buffer (pH 7-4) and treated with ultrasonic waves. The resultant liquid was centrifuged. The supernatant, as the enzyme solution, was determined by a method of Walter ad Schutt in Method of Enzymatic Analysis, Vol. 1-2, p. 856, Academic Press, New York, 1965). Namely, this method was carried out as follows: p-nitrophenylphosphoric acid was used as the substrate. 0.05 ml of the enzyme solution was added to 2 ml of diethanolamine buffer (pH 9.8). After the incubation at 37° C. for 30 minutes, 10 ml of 0.05 N NaOH was added to the mixture. The absorbance (405 nm) was determined with a spectrophotometer to determine bone alkaline phosphatase activity of a bone remedy or a compound known to be effective for the bones.\n(§3) The bone component-increasing effect of β-cryptoxanthin was examined. The diaphysis and metaphysis tissue of the femur was cultured in the above-described culture medium containing β-cryptoxanthin ([…]) for 48 hours. Calcium level in the bone tissue, alkaline phosphatase activity (enzyme for accelerating the bone calcification) and the amount of deoxyribonucleic acid (DNA; index of number of cells in the bone tissue) were determined by the same methods as in Example 1. In each test group, the determination vas conducted 6 to 8 times and the results were represented by the average value and the standard error. The significant difference was determined by Student's t-test. The result was compared with that of the control. When P value was not higher than 0.01 (**) or not higher than 0.05 (*), the results were statistically significant."}, "[2]": {"tested_on": "metaphysis tissue of the femur (cancellous bone)", "assay": "Bone DNA level in cultured femoral metaphysis tissue pieces", "type": "cell-based, Wistar male rats", "conditions": "for Bone DNA level: metaphysis tissue, mean ± SE", "protocol": "as §1\n(§4) DNA level was determined as an index of the number of cells in the bone tissue. After the culture in an incubator, the tissue pieces were washed with 0.25 M sucrose solution and then the wet weight of them was determined. They were pulverized in 4 ml of 0.1 N NaOH. After the osmosis at 4° C. for 24 hours, the liquid mixture was centrifuged. The supernatant was taken as the sample and determined by a method of Ceriotti et al. (J. Biol. Chem., 241; 34-77, 1951). Namely, 1 ml of concentrated hydrochloric acid and 1 ml of 0.04% indole solution were added to 2 ml of the sample and then the resultant mixture was heated to 100° C. in boiling water. After quenching followed by the extraction with 4 ml of chloroform, the chloroform layer was taken to determine bone DNA level with a spectrophotometer (490 nm).\nas §3"}, "[3]": {"tested_on": "diaphysis tissue of the femur (cortical bone)", "assay": "Bone DNA level in cultured femoral diaphysis tissue pieces", "type": "cell-based, Wistar male rats", "conditions": "for Bone DNA level: diaphysis tissue, mean ± SE", "protocol": "as §1, §4, §3"}, "[4]": {"tested_on": "rats, femoral diaphysis tissue", "assay": "Oral administration to rats: bone alkaline phosphatase activity in diaphysis tissue", "type": "in vivo, Wistar male rats", "conditions": "for Bone alkaline phosphatase activity: diaphysis tissue", "protocol": "as §2\n(§5) A solution of β-cryptoxanthin in corn oil having one of three kinds of concentration (10, 25 and 50 μg/ml corn oil) was orally administered to rats (Wistar male rats; 4 to 5 weeks old) in an amount/100 g body weight with a probe once a day for 7 days. The rats were sacrificed 24 hours after the final administration. The femurs were excised. The muscles, etc. were taken out and each femur was divided into diaphysis and metaphysis to determine the bone components.\n(§6) Tests were conducted to examine whether the bone components are increased by the oral administration of β-cryptoxanthin to rats or not. β-cryptoxanthin was administered for 7 days (10, 25 or 50 μg/100 g body weight/day) and then calcium level in the bone tissue, determination of alkaline phosphatase activity (enzyme for the acceleration of the calcification of bones) and the amount of deoxyribonucleic acid (DNA: index of the number of the cells in the bone tissue) were determined by the same methods as those in Example 1. In each test group, the determination was conducted 6 times and the results were represented by the average value and the standard error. The significant difference was determined by Student's t-test. The result was compared with that of the control. When P value was not higher than 0.01 (*) as compared with the control, the results were statistically significant."}, "[5]": {"tested_on": "rats, femoral metaphysis tissue", "assay": "Oral administration to rats: bone calcium level in metaphysis tissue", "type": "in vivo, Wistar male rats", "conditions": "for Bone calcium level: metaphysis tissue", "protocol": "Bone calcium level in the bone tissue was determined. After the culture in the incubator, the tissue pieces were washed with 0.25 M sucrose solution and dried and then the bone was weighed. Then concentrated nitric acid was added to the tissue pieces. After the incineration at 120° C. for 12 hours, the bone calcium level was determined with an atomic absorption photometer (“Perkin-Elmer 303” of Perkin-Elmer Co.).\nas §5, §6"}, "[6]": {"tested_on": "rats, femoral metaphysis tissue", "assay": "Oral administration to rats: bone alkaline phosphatase activity in metaphysis tissue", "type": "in vivo, Wistar male rats", "conditions": "for Bone alkaline phosphatase activity: metaphysis tissue", "protocol": "as §2, §5, §6"}, "[7]": {"conditions": "Table 2 (protein synthesis inhibitor experiment), 10^−6 M (each agent), n=6"}, "[8]": {"conditions": "β-cryptoxanthin 10^−6 M with cycloheximide"}, "[9]": {"conditions": "10^−7 to 10^−5 M, 48 h culture, vs control"}, "[10]": {"conditions": "10, 25 or 50 μg/100 g body weight/day, 7 days"}, "[11]": {"conditions": "oral 10 μg/100 g body weight/day for 7 days"}, "[12]": {"conditions": "oral 25 μg/100 g body weight/day for 7 days"}, "[13]": {"conditions": "oral 50 μg/100 g body weight/day for 7 days"}}, "note": "Marks after values point to notes of the source that are not given here."}
{"smiles": "CC1=C(/C=C/C(C)=C/C=C/C(C)=C/C=C/C=C(C)/C=C/C=C(C)/C=C/C2=C(C)C[C@@H](O)CC2(C)C)C(C)(C)CCC1", "note": "[β-cryptoxanthin]", "values": [{"measurement": "Effect on the enzymatic (alkaline phosphatase) activity in the metaphysis (in words)", "setting": "[1]; 10^−7 to 10^−4 M (so in the source), 48 h culture, vs control", "value": "increase"}, {"measurement": "Bone alkaline phosphatase activity", "setting": "[1]; [7]", "value": "1168.2 ± 30.1* nmol/min/mg protein"}, {"measurement": "Bone alkaline phosphatase activity", "setting": "[1]; 10^−5 M, 48 h culture", "value": "1229.5 ± 40.9** nmol/min/mg protein"}, {"measurement": "Bone alkaline phosphatase activity", "setting": "[1]; 10^−6 M, 48 h culture", "value": "1150.9 ± 26.8** nmol/min/mg protein"}, {"measurement": "Bone alkaline phosphatase activity", "setting": "[1]; 10^−7 M, 48 h culture", "value": "945.2 ± 5.4** nmol/min/mg protein"}, {"measurement": "Bone alkaline phosphatase activity", "setting": "[1]; 10^−8 M, 48 h culture", "value": "918.4 ± 4.3", "unit": "nmol/min/mg protein"}, {"measurement": "Bone alkaline phosphatase activity in metaphysis tissue increased by β-cryptoxanthin: change in the presence of cycloheximide (in words)", "setting": "[1]; [8]", "value": "significantly lowered"}, {"measurement": "Effect on DNA level in the metaphysis tissue (in words)", "setting": "[2]; [9]", "value": "significantly increased"}, {"measurement": "Bone DNA level", "setting": "[2]; [7]", "value": "5.401 ± 0.188* mg/g bone wet weight"}, {"measurement": "Bone DNA level", "setting": "[2]; 10^−5 M, 48 h culture", "value": "5.584 ± 0.530** mg/g bone wet weight"}, {"measurement": "Bone DNA level", "setting": "[2]; 10^−6 M, 48 h culture", "value": "5.359 ± 0.207** mg/g bone wet weight"}, {"measurement": "Bone DNA level", "setting": "[2]; 10^−7 M, 48 h culture", "value": "4.170 ± 0.057** mg/g bone wet weight"}, {"measurement": "Bone DNA level", "setting": "[2]; 10^−8 M, 48 h culture", "value": "3.276 ± 0.207", "unit": "mg/g bone wet weight"}, {"measurement": "Bone DNA level in metaphysis tissue increased by β-cryptoxanthin: change in the presence of cycloheximide (in words)", "setting": "[2]; [8]", "value": "significantly lowered"}, {"measurement": "Effect on DNA level in the diaphysis tissue (in words)", "setting": "[3]; [9]", "value": "significantly increased"}, {"measurement": "Bone DNA level", "setting": "[3]; [7]", "value": "1.800 ± 0.025* mg/g bone wet weight"}, {"measurement": "Bone DNA level", "setting": "[3]; 10^−5 M, 48 h culture", "value": "1.802 ± 0.063** mg/g bone wet weight"}, {"measurement": "Bone DNA level", "setting": "[3]; 10^−6 M, 48 h culture", "value": "1.746 ± 0.016* mg/g bone wet weight"}, {"measurement": "Bone DNA level", "setting": "[3]; 10^−7 M, 48 h culture", "value": "1.788 ± 0.049* mg/g bone wet weight"}, {"measurement": "Bone DNA level", "setting": "[3]; 10^−8 M, 48 h culture", "value": "1.741 ± 0.099", "unit": "mg/g bone wet weight"}, {"measurement": "Bone DNA level in diaphysis tissue increased by β-cryptoxanthin: change in the presence of cycloheximide (in words)", "setting": "[3]; [8]", "value": "significantly lowered"}, {"measurement": "Effect on alkali phosphatase activity in the diaphysis tissue after oral administration (in words)", "setting": "[4]; [10]", "value": "significantly increased"}, {"measurement": "Bone alkaline phosphatase activity", "setting": "[4]; [11]", "value": "2.38 ± 0.019* μmol/min/mg protein"}, {"measurement": "Bone alkaline phosphatase activity", "setting": "[4]; [12]", "value": "2.35 ± 0.021* μmol/min/mg protein"}, {"measurement": "Bone alkaline phosphatase activity", "setting": "[4]; [13]", "value": "1.85 ± 0.025* μmol/min/mg protein"}, {"measurement": "Effect on calcium level in the metaphysis tissue after oral administration (in words)", "setting": "[5]; [10]", "value": "significantly increased"}, {"measurement": "Bone calcium level", "setting": "[5]; [11]", "value": "201.5 ± 5.60* mg/g dry weight"}, {"measurement": "Bone calcium level", "setting": "[5]; [12]", "value": "200.3 ± 3.90* mg/g dry weight"}, {"measurement": "Bone calcium level", "setting": "[5]; [13]", "value": "205.9 ± 4.10* mg/g dry weight"}, {"measurement": "Effect on alkali phosphatase activity in the metaphysis tissue after oral administration (in words)", "setting": "[6]; [10]", "value": "significantly increased"}, {"measurement": "Bone alkaline phosphatase activity", "setting": "[6]; [11]", "value": "2.21 ± 0.023* μmol/min/mg protein"}, {"measurement": "Bone alkaline phosphatase activity", "setting": "[6]; [12]", "value": "2.545 ± 0.029* μmol/min/mg protein"}, {"measurement": "Bone alkaline phosphatase activity", "setting": "[6]; [13]", "value": "1.92 ± 0.015* μmol/min/mg protein"}]}
